# Tests used:
# Thromboxane A2 receptor = biological target: T1, Thromboxane A2 receptor (Homo sapiens, UniProt P21731)
# T1 sequence (P21731 whole entry): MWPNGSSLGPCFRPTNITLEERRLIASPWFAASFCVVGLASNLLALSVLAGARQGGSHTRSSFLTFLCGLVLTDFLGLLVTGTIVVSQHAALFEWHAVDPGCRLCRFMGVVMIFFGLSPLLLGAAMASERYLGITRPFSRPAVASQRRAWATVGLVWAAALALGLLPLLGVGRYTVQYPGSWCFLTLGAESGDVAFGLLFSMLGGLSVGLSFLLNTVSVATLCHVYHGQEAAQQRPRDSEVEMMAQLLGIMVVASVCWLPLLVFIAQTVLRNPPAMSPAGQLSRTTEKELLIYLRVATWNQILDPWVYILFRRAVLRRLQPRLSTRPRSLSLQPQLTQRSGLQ
# [1] = biological target: T2, Muscarinic acetylcholine receptor M1 (Homo sapiens, UniProt P11229)
# T2 sequence (P11229 whole entry): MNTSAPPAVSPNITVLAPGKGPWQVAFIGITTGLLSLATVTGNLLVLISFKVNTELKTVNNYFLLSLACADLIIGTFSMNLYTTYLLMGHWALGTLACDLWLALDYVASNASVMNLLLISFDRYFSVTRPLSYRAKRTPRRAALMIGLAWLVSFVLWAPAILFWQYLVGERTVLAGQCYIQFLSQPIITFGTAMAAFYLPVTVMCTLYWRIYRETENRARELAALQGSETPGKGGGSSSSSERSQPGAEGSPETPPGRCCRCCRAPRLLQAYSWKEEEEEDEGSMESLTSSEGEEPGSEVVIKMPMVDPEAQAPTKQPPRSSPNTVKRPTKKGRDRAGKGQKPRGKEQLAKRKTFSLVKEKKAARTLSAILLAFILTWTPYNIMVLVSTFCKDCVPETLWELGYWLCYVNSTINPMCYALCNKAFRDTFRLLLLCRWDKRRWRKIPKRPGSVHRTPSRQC
# [2] = biological target: Voltage-dependent N-type calcium channel subunit alpha-1B (Rattus norvegicus, UniProt Q02294); format: functional
# [3] = biological target: T3, 5-hydroxytryptamine receptor 1A (Homo sapiens, UniProt P08908)
# T3 sequence (P08908 whole entry): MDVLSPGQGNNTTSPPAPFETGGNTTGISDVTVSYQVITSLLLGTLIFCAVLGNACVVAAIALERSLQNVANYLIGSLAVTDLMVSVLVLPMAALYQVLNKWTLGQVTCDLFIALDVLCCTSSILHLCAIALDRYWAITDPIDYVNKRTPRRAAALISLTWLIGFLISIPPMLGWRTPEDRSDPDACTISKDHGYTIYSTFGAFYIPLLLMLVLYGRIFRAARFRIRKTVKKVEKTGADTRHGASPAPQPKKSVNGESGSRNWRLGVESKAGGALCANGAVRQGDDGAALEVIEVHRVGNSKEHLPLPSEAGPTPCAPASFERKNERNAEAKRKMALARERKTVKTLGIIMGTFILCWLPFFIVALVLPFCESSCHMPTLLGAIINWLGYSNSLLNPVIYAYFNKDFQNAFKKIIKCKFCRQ
# [4] = biological target: Neurotensin receptor type 1 (Homo sapiens, UniProt P30989)
# [5] = biological target: T4, Neuropeptide Y receptor type 2 (Homo sapiens, UniProt P49146)
# T4 sequence (P49146 whole entry): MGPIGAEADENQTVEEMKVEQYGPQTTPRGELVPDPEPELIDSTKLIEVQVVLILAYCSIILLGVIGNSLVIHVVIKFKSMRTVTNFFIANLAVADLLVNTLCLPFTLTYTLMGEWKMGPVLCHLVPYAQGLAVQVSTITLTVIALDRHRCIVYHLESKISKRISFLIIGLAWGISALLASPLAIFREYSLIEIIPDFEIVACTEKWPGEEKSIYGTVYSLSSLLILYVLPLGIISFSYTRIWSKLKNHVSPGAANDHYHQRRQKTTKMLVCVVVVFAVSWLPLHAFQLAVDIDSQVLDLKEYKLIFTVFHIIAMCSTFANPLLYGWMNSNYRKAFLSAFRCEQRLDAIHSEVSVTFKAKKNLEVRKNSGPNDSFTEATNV
# [6] = biological target: T5, Gastric inhibitory polypeptide receptor (Homo sapiens, UniProt P48546)
# T5 sequence (P48546 whole entry): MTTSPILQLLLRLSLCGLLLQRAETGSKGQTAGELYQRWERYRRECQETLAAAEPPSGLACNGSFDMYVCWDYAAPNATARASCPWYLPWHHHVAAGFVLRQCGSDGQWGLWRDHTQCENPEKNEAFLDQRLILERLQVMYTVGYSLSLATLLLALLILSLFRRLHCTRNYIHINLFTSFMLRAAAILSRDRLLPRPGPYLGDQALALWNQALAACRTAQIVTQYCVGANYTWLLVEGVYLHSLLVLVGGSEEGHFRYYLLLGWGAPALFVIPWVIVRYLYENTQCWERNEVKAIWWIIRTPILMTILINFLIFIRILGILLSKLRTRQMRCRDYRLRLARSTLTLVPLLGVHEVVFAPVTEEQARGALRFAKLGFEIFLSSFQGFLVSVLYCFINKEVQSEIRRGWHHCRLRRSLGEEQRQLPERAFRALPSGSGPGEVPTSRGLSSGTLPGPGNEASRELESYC
# [7] = biological target: T6, Gamma-aminobutyric acid receptor subunit alpha-1/alpha-2/beta-2/gamma-2 (Homo sapiens, UniProt P14867+P18507+P47869+P47870); format: functional, cell-based
# [8] = biological target: T6, Gamma-aminobutyric acid receptor subunit alpha-1/alpha-2/beta-2/gamma-2; format: functional, cell-based; remark: listed apart in the source
# Also: assay procedure not described here.
# Sequence of Neurotensin receptor type 1 (P30989 whole entry): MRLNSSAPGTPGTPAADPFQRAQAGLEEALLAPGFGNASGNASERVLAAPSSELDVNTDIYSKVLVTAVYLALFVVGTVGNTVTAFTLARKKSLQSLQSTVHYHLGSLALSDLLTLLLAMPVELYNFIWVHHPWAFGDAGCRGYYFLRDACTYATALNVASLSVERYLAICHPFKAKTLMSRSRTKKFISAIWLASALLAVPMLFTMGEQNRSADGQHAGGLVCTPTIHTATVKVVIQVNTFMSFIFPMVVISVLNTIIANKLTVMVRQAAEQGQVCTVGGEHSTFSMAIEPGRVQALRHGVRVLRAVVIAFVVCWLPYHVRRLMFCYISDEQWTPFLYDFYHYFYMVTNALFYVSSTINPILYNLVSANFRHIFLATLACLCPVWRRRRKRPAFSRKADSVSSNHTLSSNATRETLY
# Sequence of Voltage-dependent N-type calcium channel subunit alpha-1B (Q02294 whole entry): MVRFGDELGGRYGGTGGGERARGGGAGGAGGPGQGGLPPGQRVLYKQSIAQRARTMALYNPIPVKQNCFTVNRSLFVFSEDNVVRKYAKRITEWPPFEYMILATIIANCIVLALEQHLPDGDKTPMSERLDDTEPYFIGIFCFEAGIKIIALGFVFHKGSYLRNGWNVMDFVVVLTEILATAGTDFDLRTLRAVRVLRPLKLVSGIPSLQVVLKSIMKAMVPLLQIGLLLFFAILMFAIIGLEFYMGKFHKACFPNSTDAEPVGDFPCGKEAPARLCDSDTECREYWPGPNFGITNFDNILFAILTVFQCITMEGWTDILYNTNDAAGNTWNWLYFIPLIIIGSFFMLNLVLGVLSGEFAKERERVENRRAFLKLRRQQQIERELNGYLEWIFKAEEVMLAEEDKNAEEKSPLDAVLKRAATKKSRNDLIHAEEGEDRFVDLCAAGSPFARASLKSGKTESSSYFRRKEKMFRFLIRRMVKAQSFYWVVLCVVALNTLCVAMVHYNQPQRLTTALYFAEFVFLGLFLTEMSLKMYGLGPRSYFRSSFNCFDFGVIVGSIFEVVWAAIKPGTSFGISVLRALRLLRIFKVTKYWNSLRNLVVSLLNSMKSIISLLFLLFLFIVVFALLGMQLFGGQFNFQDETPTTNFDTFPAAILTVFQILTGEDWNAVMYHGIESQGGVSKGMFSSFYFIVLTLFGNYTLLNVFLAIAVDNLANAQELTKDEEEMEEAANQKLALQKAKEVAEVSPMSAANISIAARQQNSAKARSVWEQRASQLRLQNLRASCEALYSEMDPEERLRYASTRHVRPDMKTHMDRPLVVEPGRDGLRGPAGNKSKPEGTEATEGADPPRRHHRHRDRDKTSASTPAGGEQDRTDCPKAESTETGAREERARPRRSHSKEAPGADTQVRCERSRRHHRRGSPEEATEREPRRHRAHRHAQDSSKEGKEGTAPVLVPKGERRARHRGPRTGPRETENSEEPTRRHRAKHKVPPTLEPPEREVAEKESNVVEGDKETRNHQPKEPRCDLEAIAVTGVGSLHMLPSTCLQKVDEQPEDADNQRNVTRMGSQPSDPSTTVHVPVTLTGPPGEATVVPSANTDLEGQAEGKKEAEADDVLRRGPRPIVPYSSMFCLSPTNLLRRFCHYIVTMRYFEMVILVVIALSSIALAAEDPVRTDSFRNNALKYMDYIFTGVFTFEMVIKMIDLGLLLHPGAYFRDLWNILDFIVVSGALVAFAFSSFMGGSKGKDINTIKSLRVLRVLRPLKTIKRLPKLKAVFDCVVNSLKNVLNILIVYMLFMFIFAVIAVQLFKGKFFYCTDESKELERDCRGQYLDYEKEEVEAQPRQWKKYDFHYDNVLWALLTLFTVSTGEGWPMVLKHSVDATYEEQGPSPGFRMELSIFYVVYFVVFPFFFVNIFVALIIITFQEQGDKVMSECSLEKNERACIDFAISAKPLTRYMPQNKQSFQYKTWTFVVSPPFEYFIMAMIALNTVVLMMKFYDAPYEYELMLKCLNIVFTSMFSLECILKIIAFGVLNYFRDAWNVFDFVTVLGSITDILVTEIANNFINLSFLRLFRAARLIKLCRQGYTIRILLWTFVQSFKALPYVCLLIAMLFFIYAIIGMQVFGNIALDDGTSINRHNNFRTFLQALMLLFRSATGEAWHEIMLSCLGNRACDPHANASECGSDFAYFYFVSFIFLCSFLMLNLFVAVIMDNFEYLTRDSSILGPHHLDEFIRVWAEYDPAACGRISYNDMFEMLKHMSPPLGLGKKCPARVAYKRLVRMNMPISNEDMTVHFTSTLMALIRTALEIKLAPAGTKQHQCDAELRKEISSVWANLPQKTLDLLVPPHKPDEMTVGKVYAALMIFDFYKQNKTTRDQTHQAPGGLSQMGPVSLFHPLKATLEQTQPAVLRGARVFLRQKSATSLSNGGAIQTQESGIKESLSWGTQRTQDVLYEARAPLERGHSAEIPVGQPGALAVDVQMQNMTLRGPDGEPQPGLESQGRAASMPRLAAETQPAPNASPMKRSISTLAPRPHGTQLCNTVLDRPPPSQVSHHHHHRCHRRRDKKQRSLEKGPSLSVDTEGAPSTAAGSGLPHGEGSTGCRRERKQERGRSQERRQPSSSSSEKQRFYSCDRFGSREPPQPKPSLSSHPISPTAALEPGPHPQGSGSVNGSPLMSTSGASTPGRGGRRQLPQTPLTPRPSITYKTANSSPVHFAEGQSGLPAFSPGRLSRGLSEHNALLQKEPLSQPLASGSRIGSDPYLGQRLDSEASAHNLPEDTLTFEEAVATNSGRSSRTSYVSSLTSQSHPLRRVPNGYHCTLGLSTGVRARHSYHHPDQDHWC
# T6 sequence (P14867 whole entry): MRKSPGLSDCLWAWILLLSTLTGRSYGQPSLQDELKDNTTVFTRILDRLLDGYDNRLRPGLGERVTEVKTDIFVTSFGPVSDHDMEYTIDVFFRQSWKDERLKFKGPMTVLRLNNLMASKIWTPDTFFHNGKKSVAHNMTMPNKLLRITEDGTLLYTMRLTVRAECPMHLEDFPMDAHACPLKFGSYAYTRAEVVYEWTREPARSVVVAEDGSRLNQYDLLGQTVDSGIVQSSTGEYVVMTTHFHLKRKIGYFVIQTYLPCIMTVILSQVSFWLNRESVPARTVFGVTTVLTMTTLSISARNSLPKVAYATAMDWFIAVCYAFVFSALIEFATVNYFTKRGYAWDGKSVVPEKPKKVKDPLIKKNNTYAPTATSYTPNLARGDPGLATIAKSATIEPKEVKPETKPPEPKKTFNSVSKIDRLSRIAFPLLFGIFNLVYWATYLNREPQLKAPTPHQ
# T6 sequence (P47870 whole entry): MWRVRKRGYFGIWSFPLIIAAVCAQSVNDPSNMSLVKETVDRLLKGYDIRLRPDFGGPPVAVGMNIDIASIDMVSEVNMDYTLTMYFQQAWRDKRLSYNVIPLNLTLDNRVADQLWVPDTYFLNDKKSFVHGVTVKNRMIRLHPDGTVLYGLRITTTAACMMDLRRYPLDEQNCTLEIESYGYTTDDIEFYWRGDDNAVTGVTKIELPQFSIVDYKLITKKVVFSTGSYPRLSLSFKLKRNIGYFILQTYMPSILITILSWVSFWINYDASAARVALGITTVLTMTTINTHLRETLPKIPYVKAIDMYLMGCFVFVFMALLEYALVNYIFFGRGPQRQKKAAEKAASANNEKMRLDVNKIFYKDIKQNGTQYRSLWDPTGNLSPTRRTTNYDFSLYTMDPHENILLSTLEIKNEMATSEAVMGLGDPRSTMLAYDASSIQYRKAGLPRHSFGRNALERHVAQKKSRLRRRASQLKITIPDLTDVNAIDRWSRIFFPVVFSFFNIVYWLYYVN
# T6 sequence (P18507 whole entry): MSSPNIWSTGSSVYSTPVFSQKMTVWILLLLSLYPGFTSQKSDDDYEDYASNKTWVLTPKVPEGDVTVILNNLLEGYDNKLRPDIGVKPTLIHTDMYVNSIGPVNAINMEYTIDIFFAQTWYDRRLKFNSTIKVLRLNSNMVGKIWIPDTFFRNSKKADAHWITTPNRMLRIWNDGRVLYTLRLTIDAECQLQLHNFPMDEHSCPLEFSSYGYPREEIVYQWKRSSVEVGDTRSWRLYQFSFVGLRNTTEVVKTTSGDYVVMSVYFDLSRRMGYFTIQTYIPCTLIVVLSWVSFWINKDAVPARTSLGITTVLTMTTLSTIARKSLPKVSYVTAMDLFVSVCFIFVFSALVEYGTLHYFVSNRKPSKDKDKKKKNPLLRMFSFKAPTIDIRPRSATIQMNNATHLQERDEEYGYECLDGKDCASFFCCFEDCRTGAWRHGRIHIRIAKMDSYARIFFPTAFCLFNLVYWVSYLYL
# T6 sequence (P47869 whole entry): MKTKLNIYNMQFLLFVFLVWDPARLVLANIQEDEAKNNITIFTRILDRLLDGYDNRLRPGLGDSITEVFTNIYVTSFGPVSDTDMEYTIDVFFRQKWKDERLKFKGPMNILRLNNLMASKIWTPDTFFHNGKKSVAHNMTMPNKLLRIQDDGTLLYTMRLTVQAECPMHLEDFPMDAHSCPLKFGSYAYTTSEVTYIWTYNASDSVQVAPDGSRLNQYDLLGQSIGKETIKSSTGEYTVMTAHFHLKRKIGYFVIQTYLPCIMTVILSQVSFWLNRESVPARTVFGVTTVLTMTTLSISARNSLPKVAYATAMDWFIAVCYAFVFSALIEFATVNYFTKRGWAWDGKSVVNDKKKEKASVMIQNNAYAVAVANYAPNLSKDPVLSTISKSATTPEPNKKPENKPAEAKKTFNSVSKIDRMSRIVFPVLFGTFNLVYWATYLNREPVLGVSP
smiles,measurement,setting,value
CN(CCCN1c2ccccc2CCc2ccccc21)CC(=O)c1ccc(Cl)cc1 [LOFEPRAMINE],AC50,Thromboxane A2 receptor,> 30 µM
Nc1nc(-n2cc(C(=O)O)c(=O)c3cc(F)c(N4CC(O)C4)c(Cl)c32)c(F)cc1F [DELAFLOXACIN],AC50,[1],> 30 µM
CN(C)CCCN1c2ccccc2Sc2ccccc21 [PROMAZINE],AC50,[2],> 10 µM
same,AC50,[3],4.37 µM
same,AC50,Thromboxane A2 receptor,> 30 µM
same,AC50,[4],> 30 µM
same,AC50,[5],> 30 µM
same,AC50,[6],> 30 µM
O=C(O)CCn1c2c(c3ccccc31)C[C@H](NS(=O)(=O)c1ccc(F)cc1)CC2 [RAMATROBAN],AC50,Thromboxane A2 receptor,0.0311 µM
same,AC50,[5],> 10 µM
NS(=O)(=O)c1cc(Cl)c(Cl)c(S(N)(=O)=O)c1 [DICHLORPHENAMIDE],AC50,Thromboxane A2 receptor,> 10 µM
O=C(Nc1ccccc1)OCC(CN1CCCCC1)OC(=O)Nc1ccccc1 (stereo not given) [DIPERODON],AC50,[2],> 10 µM
same,AC50,[3],> 10 µM
same,AC50,Thromboxane A2 receptor,> 30 µM
same,AC50,[4],> 30 µM
same,AC50,[5],> 30 µM
same,AC50,[6],> 30 µM
CN1C(=O)N(C)C2C1N(C)C(=O)N2C (stereo not given) [MEBICAR],AC50,[7],> 30 µM
same,AC50,[8],> 30 µM
same,AC50,[1],> 30 µM
CN(C/C=C/c1ccccc1)Cc1cccc2ccccc12 [NAFTIFINE],AC50,Thromboxane A2 receptor,> 30 µM
NS(=O)(=O)c1cc2c(cc1Cl)NC(CC1CCCC1)NS2(=O)=O (stereo not given) [CYCLOPENTHIAZIDE],AC50,[7],> 30 µM
same,AC50,[8],> 30 µM
same,AC50,[1],> 30 µM
N/N=c1/cc2c(n[nH]1)CCN(C(=O)c1ccccc1)C2 [ENDRALAZINE],AC50,[7],> 30 µM
same,AC50,[8],> 30 µM
same,AC50,[1],> 30 µM
O=C(O)c1cccc(-c2noc(-c3ccccc3F)n2)c1,AC50,[3],> 10 µM
same,AC50,Thromboxane A2 receptor,> 30 µM
CC(=O)N(CC(O)CO)c1c(I)c(C(=O)NCC(O)CO)c(I)c(C(=O)NCC(O)CO)c1I (stereo not given) [IOHEXOL],AC50,[3],> 10 µM
same,AC50,Thromboxane A2 receptor,> 30 µM
N[C@@H](CSCC(=O)O)C(=O)O [CARBOCYSTEINE],AC50,Thromboxane A2 receptor,> 30 µM
O=P(O)(O)C(O)(Cc1cccnc1)P(=O)(O)O [RISEDRONIC ACID],AC50,[2],> 10 µM
same,AC50,[3],> 10 µM
same,AC50,Thromboxane A2 receptor,> 30 µM
same,AC50,[4],> 30 µM
same,AC50,[5],> 30 µM
same,AC50,[6],> 30 µM
C=C1C[C@@H]2[C@H](CC[C@]3(C)C(=O)CC[C@@H]23)[C@@]2(C)C=CC(=O)C=C12 [EXEMESTANE],AC50,[2],> 10 µM
same,AC50,[3],> 10 µM
same,AC50,Thromboxane A2 receptor,> 30 µM
same,AC50,[4],> 30 µM
same,AC50,[5],> 30 µM
same,AC50,[6],> 30 µM
Nc1ccc(/N=N/c2ccccc2)c(N)n1 [PHENAZOPYRIDINE],AC50,[7],> 30 µM
same,AC50,[8],> 30 µM
same,AC50,[1],> 30 µM
NC(=O)c1cccc2cn(-c3ccc([C@@H]4CCCNC4)cc3)nc12 [NIRAPARIB],AC50,[1],15.3 µM
COCC1=C(C(=O)OC(C)OC(=O)OC(C)C)N2C(=O)[C@@H](NC(=O)/C(=N\OC)c3csc(N)n3)[C@H]2SC1 (stereo not given in full) [CEFPODOXIME PROXETIL],AC50,[7],> 30 µM
same,AC50,[8],> 30 µM
same,AC50,[1],> 30 µM
CC(C(O)c1ccc(O)cc1)N1CCC(Cc2ccccc2)CC1 (stereo not given) [IFENPRODIL],AC50,Thromboxane A2 receptor,> 30 µM
CC(C)(N)Cc1ccc(Cl)cc1 [CHLORPHENTERMINE],AC50,[2],> 10 µM
same,AC50,[3],> 10 µM
same,AC50,Thromboxane A2 receptor,> 30 µM
same,AC50,[4],> 30 µM
same,AC50,[5],> 30 µM
same,AC50,[6],> 30 µM
CO/N=C(\C(=O)N[C@@H]1C(=O)N2C(C(=O)OCOC(=O)C(C)(C)C)=C(C)CS[C@H]12)c1csc(N)n1,AC50,[7],> 30 µM
same,AC50,[8],> 30 µM
same,AC50,[1],> 30 µM
NS(=O)(=O)c1cc(-c2nnn[nH]2)c(NCc2cccs2)cc1Cl [AZOSEMIDE],AC50,Thromboxane A2 receptor,> 30 µM
CC(C)=CCC1C(=O)N(c2ccccc2)N(c2ccccc2)C1=O [FEPRAZONE],AC50,[1],> 30 µM
O=C(Cn1ccnc1[N+](=O)[O-])NCc1ccccc1 [BENZNIDAZOLE],AC50,Thromboxane A2 receptor,> 30 µM
same,AC50,[1],> 30 µM
O=C1CCC(N2C(=O)c3ccccc3C2=O)C(=O)N1 (stereo not given) [THALIDOMIDE],AC50,[2],> 10 µM
same,AC50,[3],> 10 µM
same,AC50,Thromboxane A2 receptor,> 30 µM
same,AC50,[4],> 30 µM
same,AC50,[5],> 30 µM
same,AC50,[6],> 30 µM
C[N+](C)(C)CC(=O)O [BETAINE],AC50,Thromboxane A2 receptor,> 30 µM
CCCC(=O)N1CCCN(c2nc(N)c3cc(OC)c(OC)cc3n2)CC1 [BUNAZOSIN],AC50,[7],> 30 µM
same,AC50,[8],> 30 µM
CC(=O)N[C@H]1[C@H]([C@H](O)[C@H](O)CO)OC(C(=O)O)=C[C@@H]1N=C(N)N [ZANAMIVIR],AC50,Thromboxane A2 receptor,> 30 µM
CN(C)[C@@H]1C(O)=C(C(N)=O)C(=O)[C@@]2(O)C(O)=C3C(=O)c4c(O)ccc(Cl)c4[C@@H](O)[C@H]3C[C@@H]12 [DEMECLOCYCLINE],AC50,Thromboxane A2 receptor,> 10 µM
C[N+](C)(C)CCOC(N)=O [CARBAMOYLCHOLINE],AC50,[3],> 10 µM
same,AC50,Thromboxane A2 receptor,> 10 µM
same,AC50,[8],> 30 µM
CC(C)NCC1CCc2cc(CO)c([N+](=O)[O-])cc2N1 (stereo not given) [OXAMNIQUINE],AC50,Thromboxane A2 receptor,> 10 µM

# — ChEMBL document CHEMBL5291721, “A preclinical secondary pharmacology resource illuminates target-adverse drug reaction associations of marketed drugs” (Nat Commun, 2023)
